Values joined by “and” are separate entries in the source; they are usually repeats but may differ in a detail not shown here. Equal values may be shown once.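 All cell lines were grown in 96-well plates and treated with compound for 48 hours. Abbreviation: GI50, concentration required for 50% inhibition of growth. TGI is the concentration that stops growth completely.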
Columns and labels:
Assay in all cases: DTP human tumour cell line panel, 48 h
RXF 393 renal = tested on: RXF 393 renal
HT29 colon = tested on: HT29 colon
IGROV1 ovarian = tested on: IGROV1 ovarian
HCC-2998 colon = tested on: HCC-2998 colon
SK-MEL-2 melanoma = tested on: SK-MEL-2 melanoma
NCI-H522 lung = tested on: NCI-H522 lung
SF-295 CNS = tested on: SF-295 CNS
SF-268 CNS = tested on: SF-268 CNS
HCT-15 colon = tested on: HCT-15 colon
SN12C renal = tested on: SN12C renal

SMILES	GI50 (RXF 393 renal)	TGI (RXF 393 renal)	GI50 (HT29 colon)	TGI (HT29 colon)	GI50 (IGROV1 ovarian)	TGI (IGROV1 ovarian)	GI50 (HCC-2998 colon)	TGI (HCC-2998 colon)	GI50 (SK-MEL-2 melanoma)	TGI (SK-MEL-2 melanoma)	GI50 (NCI-H522 lung)	TGI (NCI-H522 lung)	GI50 (SF-295 CNS)	TGI (SF-295 CNS)	GI50 (SF-268 CNS)	TGI (SF-268 CNS)	GI50 (HCT-15 colon)	TGI (HCT-15 colon)	GI50 (SN12C renal)	TGI (SN12C renal)
CCCC(CCC)C(=O)O	> 100 µM	> 100 µM and 14600 µM	> 100 µM	> 100 µM and 12400 µM	> 100 µM	> 20000 µM	> 100 µM	> 100 µM and 16700 µM	> 100 µM	> 20000 µM	> 100 µM	> 20000 µM	> 100 µM	> 20000 µM	> 100 µM	> 100 µM and 12000 µM	> 100 µM	> 20000 µM	> 20000 µM	> 20000 µM
CCCCCCCCCCCCCCCC(N)c1ccccc1 (stereo not given)	1.71 µM	3.41 µM	1.66 µM	3.32 µM	1.78 µM	3.44 µM	1.67 µM	3.28 µM	1.68 µM	3.35 µM	1.62 µM	3.21 µM	1.73 µM	3.35 µM	1.63 µM	3.26 µM	1.67 µM	3.09 µM	1.8 µM	3.51 µM
NC(N)=N/N=C/c1ccc(Br)cc1	3.68 µM	12.3 µM	3.03 µM	11.3 µM	4.91 µM	24.2 µM	1.14 µM	3.16 µM	12 µM	26.4 µM	4.39 µM	17.7 µM	2.95 µM	11.8 µM	12.4 µM	38.2 µM	3.89 µM	19 µM	6.55 µM	20.2 µM
CC1=C(C(=O)NCc2ccccc2)C(c2ccccc2O)C(C(=O)NCc2ccccc2)=C(C)N1	–	34.4 µM	–	38.5 µM	–	39 µM	–	35.9 µM	–	32.6 µM	–	31.4 µM	–	44.7 µM	–	55.3 µM	–	30.2 µM	–	32.3 µM
COC(=O)CCc1c(/C=C2\N=C(c3ccc[nH]3)C=C2OC)[nH]c(C)c1C(=O)OCc1ccccc1	0.549 µM	3.38 µM	0.138 µM	1.68 µM	0.355 µM	2.41 µM	0.404 µM	6.04 µM	0.304 µM	1.24 µM	0.653 µM	2.88 µM	0.384 µM	1.73 µM	0.514 µM	8.23 µM	0.177 µM	1.53 µM	0.442 µM	2.5 µM
NC(C(=O)O)c1ccc(C(=O)O)cc1 (stereo not given)	–	> 100 µM	–	> 100 µM	–	> 100 µM	–	> 100 µM	–	> 100 µM	–	> 100 µM	–	> 100 µM	–	> 100 µM	–	> 100 µM	–	> 100 µM
NS(=O)(=O)c1ccc(N=Nc2c(=O)[nH]c3ccc4[nH]cccc4c23)cc1	0.15 µM	0.449 µM	0.875 µM	> 25 µM	0.789 µM	> 25 µM	0.398 µM	2 µM	0.182 µM	0.696 µM	0.197 µM	0.818 µM	0.883 µM	> 25 µM	0.33 µM	> 5.99 µM	2.12 µM	> 25 µM	0.47 µM	> 25 µM
